For one experiment, the target named is T1, mouse P23H opsin (Mus musculus, UniProt P15409, P23H).
T1 construct: expressed in transfected cells
Description: High-content imaging analysis of P23H opsin immunostaining in NIH3T3-(P23H opsin/GFP) cells. Type of experiment: cell-based. How it is done: To characterize the effect of active compounds on the localization of P23H-mutant opsin in mammalian cells, an image-based assay was used with cells immunostained for WT or P23H-mutant opsin protein[18]. Briefly, NIH3T3-(P23H opsin/GFP) or NIH3T3-(WT-opsin/GFP) cells were seeded at 5000 cells per well in a 384-well cell-carrier plate (PerkinElmer) and incubated at 37 °C with 5% CO2 for 2 h. Cells were treated with compounds as described for the β-Gal fragment complementation assay and incubated in assay medium for 24 h. The assay medium then was aspirated, and cells were fixed with 4% paraformaldehyde at 20 µL per well for 20 min at RT. Cells were immunostained in one of two ways: cell membranes were either permeabilized with 0.1% Triton X-100 for 15 min or left intact and then were incubated with 10% goat serum (Life Technologies). To detect opsin on the cell plasma membrane only, intact cells were immunostained with 20 µL per well of 20 µg mL^−1 B6-30 anti-rhodopsin antibody that recognizes the N-terminal epitope on the extracellular side of rhodopsin. To detect total opsin, cells were permeabilized with Triton X-100 and immunostained with 50 µg mL^−1 1D4 anti-rhodopsin antibody specific for the C-terminal epitope on the intracellular side of rhodopsin. Opsin immunostaining was visualized by incubating cells with 5 µg mL^−1 Cy3-conjugated goat anti-mouse IgG antibody. Three washes with phosphate-buffered saline (PBS: 10 mM Na2HPO4, 1.8 mM KH2PO4, pH 7.4, 137 mM NaCl, and 2.7 mM KCl) were performed between each step of incubation with antibody. In the last wash with PBS, DAPI was added to each well at 300 nM. Fluorescence images were obtained with the Operetta High Content Imaging System (PerkinElmer) using a ×20 long objective. Five fields were taken of each well for cell images using three channels for fluorescence: GFP (100 ms), Cy3 (300 ms), and DAPI (50 ms). Images were analyzed with Acapella software from the Columbus data storage and analysis system (PerkinElmer)[18]. For cells immunostained with opsin on the non-permeabilized cell membrane only, an average of total fluorescence intensity of Cy3 per cell was used to quantify opsin in each well of the 384-well plate. For cells immunostained with opsin in permeabilized whole cells, an average ratio of Cy3 intensity on the cell plasma membrane (PM) to that of the entire cell (opsin ratio PM-to-total) was calculated for each well of a 384-well plate to quantify opsin transport to the plasma membrane. The plasma membrane was defined within ± 5% of the cell border.

The next experiment concerns the target T2, P23H opsin (Mus musculus, UniProt P15409, P23H).
T2 construct: expressed in transfected cells
The experiment in a line: Immunoblot of P23H opsin glycosylation in NIH3T3 cell lysates. Further details: key to Improved glycosylation: n = no; y = yes. Type of experiment: cell-based. To be noted: for Improved glycosylation: P23H opsin; for effect on glycosylation of P23H opsin (in words): immunoblot, PNGaseF, 10 µM YC-001, 5 µM 9-cis-retinal, 10 µM scriptaid. The method, then:
NIH3T3-(P23H opsin/GFP) or NIH3T3-(WT-opsin/GFP) cells were seeded in a 48-well plate (Corning Costar) at 3.2 × 10^5 cells per well and incubated at 37 °C with 5% CO2 for 2 h. One hundred-µL of assay medium containing a compound at 5× its final concentration was added to each well. The plate was gently shaken for 5 s before further incubation at 37 °C with 5% CO2 for 24 h. The assay medium then was aspirated, and cells were lysed with 100 µL per well PBS containing 0.1% Triton X-100 and complete protease inhibitor cocktail (Roche, Basel, Switzerland) followed by sonication for 3 s. Protein concentrations were determined with the Bradford assay. For PNGaseF catalyzed deglycosylation, 3 µL of PNGaseF (1500 U, NEB) was added to the cell lysate and the mixture was incubated at room temperature for 1 h before immunoblotting. For NIH3T3-(P23H opsin/GFP) cells, 15 µg of total protein were loaded per well onto an SDS-polyacrylamide gel; whereas for NIH3T3-(WT-opsin/GFP) cells, 5 µg of total protein was loaded per well. Opsin protein was immunostained with 0.2 μg mL^−1 horseradish peroxidase-conjugated 1D4 anti-rhodopsin antibody. Band intensities were measured with ImageJ software (http://imagej.nih.gov/ij/; National the Institutes of Health, Bethesda, MD, USA) and normalized to a glyceraldehyde 3-phosphate dehydrogenase (GAPDH) loading control. Full scans of immunoblotted membranes are shown in Supplementary Fig. 8.
(A western blot detects proteins with antibodies after separation by electrophoresis.)

The next experiment concerns the target T3, bovine opsin (Bos taurus, UniProt P02699).
T3 construct: ROS membranes were isolated from bovine retinas under dim red light; from tissue; host or cells: bovine retina, rod outer segment (ROS) disc membranes, bleached with hydroxylamine
Description: Ligand-binding assay by Trp fluorescence quenching, opsin in ROS disc membranes. To be noted: 20 °C, mean of three biological repeats ± s.d.; for EC50: read-out: EC50 of Trp fluorescence quenching at 330 nm (ΔF/F0). The method, then:
ROS membranes were isolated from bovine retinas under dim red light. To remove membrane associated proteins, ROS membranes were washed with a hypotonic buffer composed of 5 mM bis-tris propane (BTP) and 1 mM EDTA, pH 7.5, followed by gentle homogenization with subsequent centrifugation at 25,000×g for 30 min. This procedure was repeated four times. The final membrane pellet was suspended in 10 mM sodium phosphate buffer, pH 7.0, and 50 mM hydroxylamine to a 3 mg mL^−1 concentration of rhodopsin, placed on ice and illuminated with a 150 Watt bulb for 30 min. Membranes were pelleted by centrifugation at 16,000×g for 5 min and then washed four times with 10 mM sodium phosphate buffer, pH 7.0, and 2% bovine serum albumin followed by 4 washes with 10 mM sodium phosphate buffer, pH 7.0, and two washes with 20 mM BTP, pH 7.5, and 100 mM NaCl. The concentration of opsin was measured with a UV–visible spectrophotometer and quantified using the absorption coefficient ε280 nm = 81,200 M^−1 cm^−1[64].
Emission spectra were recorded with a PerkinElmer L55 Luminescence Spectrophotometer at 20 °C between 300 and 450 nm after excitation at 295 nm, with excitation and emission slit bands set at 5 and 10 nm, respectively. Changes in Trp fluorescence (ΔF/F0; where ΔF is the difference between the initial Trp fluorescence recorded at 330 nm (F0) and Trp fluorescence recorded at 330 nm at a specified YC-001 concentration) were plotted as a function of the ligand concentration. Binding curves were fitted by the Hill function using Origin software for each compound and the EC50 was calculated. All experimental data were corrected for background and self-absorption of excitation and emission light (inner filter effect).

Where [1] appears, read: cell-surface immunostaining, non-permeabilized, Fig. 2j, read-out: EC50, opsin on the plasma membrane (Opsin INT).
Where [2] appears, read: ratio of P23H rod opsin fluorescence on plasma membrane to whole cell.
The mark [3] stands for this setting: ratio of P23H rod opsin fluorescence on plasma membrane to whole cell, read-out: Immunostaining HCS MEM-Total ratio EC50.

Where two headings read alike, the source gives them in different places.

T3 sequence (P02699 whole entry): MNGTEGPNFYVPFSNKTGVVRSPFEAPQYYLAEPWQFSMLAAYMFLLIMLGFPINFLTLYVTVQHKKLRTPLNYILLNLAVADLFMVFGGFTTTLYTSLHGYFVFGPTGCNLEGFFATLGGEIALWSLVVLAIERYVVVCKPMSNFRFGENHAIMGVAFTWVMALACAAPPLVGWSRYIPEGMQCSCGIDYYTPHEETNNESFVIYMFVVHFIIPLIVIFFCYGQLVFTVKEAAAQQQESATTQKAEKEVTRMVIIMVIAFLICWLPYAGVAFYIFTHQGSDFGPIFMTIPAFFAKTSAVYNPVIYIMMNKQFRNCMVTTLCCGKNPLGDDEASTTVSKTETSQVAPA

As for `CC1=C(/C=C/C(C)=C\C=C\C(C)=C\C=O)C(C)(C)CCC1` [9-cis-retinal, reference compound], at mouse P23H opsin (Fig. 2j), the “A1 (low plateau), Opsin INT” value amounted to 219 and the “A2 (high plateau), Opsin INT” value stood at 275. Also, on mouse P23H opsin (Fig. 2l), the “A1 (low plateau), Opsin ratio PM-to-total” value is on record as 0.167 and the “A2 (high plateau), Opsin ratio PM-to-total” value is on record as 0.186. Besides, at mouse P23H opsin (Fig. 2n), the “A1 (low plateau), Opsin ratio ER-to-total” value came out at 0.240 and the “A2 (high plateau), Opsin ratio ER-to-total” value was found to be 0.255. In addition, the EC50 at mouse P23H opsin (setting [1]) came out at 0.377 µM. Also, at mouse P23H opsin (setting [2]), the “Immunostaining HCS MEM-Total ratio Max (fit)” value amounted to 0.019. The EC50 on mouse P23H opsin (whole-cell immunostaining, Fig. 2l, read-out: EC50, Opsin ratio PM-to-total) is 1.21 µM. Further, at P23H opsin, the Improved glycosylation entry was “y” and the “effect on glycosylation of P23H opsin (in words)” value (from here on “effect on glycosylation”) is listed as “improvement of glycosylation”. Besides, on bovine opsin, the EC50 turned out to be 1.2 ± 0.1 µM.

For the compound `O=C(CCCCCN1C(=O)c2cccc3cccc(c23)C1=O)NO` [Scriptaid, reference compound], the “Immunostaining HCS MEM-Total ratio Max (fit)” value on mouse P23H opsin (setting [2]) was found to be 0.070. At mouse P23H opsin (setting [3]), the EC50 amounted to 0.38 µM. Besides, at P23H opsin, the Improved glycosylation result was “n” and the “effect on glycosylation” value is listed as “does not affect the glycosylation”. Also, the “EC50 of Trp fluorescence quenching at 330 nm (ΔF/F0)” value at bovine opsin is “did not affect Trp fluorescence”.

On to `O=C1OCC(c2ccc(Cl)s2)=C1c1cccs1` [YC-001], for which, on mouse P23H opsin (Fig. 2j), the “A1 (low plateau), Opsin INT” value was 218 and the “A2 (high plateau), Opsin INT” value turned out to be 270. For the same compound, on mouse P23H opsin (Fig. 2l), the “A1 (low plateau), Opsin ratio PM-to-total” value was found to be 0.172 and the “A2 (high plateau), Opsin ratio PM-to-total” value is reported as 0.202. Besides, at mouse P23H opsin (Fig. 2n), the “A1 (low plateau), Opsin ratio ER-to-total” value was 0.236 and the “A2 (high plateau), Opsin ratio ER-to-total” value is listed as 0.248. Moreover, the EC50 at mouse P23H opsin (setting [1]) was determined as 3.22 µM. The “Immunostaining HCS MEM-Total ratio Max (fit)” value on mouse P23H opsin (setting [2]) came out at 0.030. For the same compound, on mouse P23H opsin (setting [3]), the EC50 was 2.75 µM. The EC50 on mouse P23H opsin (whole-cell immunostaining, Fig. 2n, read-out: EC50, Opsin ratio ER-to-total) is 2.14 µM. In addition, on P23H opsin, the Improved glycosylation entry is “y” and the “effect on glycosylation” value is given as “improvement of glycosylation”. Besides, the EC50 at bovine opsin came to 0.98 ± 0.05 µM.

(Values after paper PMC5958115, “A novel small molecule chaperone of rod opsin and its potential therapy for retinal degeneration” (Nature Communications, 2018).)
